What was measured:
[1] = test system: BaF3 cells with engineered EGFR L858R/C797S; assay: 3-Day CellTiter Glo (CTG) cell proliferation assay, BaF3 EGFR L858R/C797S; type: cell-based; details: Mus musculus, 3-day CTG proliferation, 72 hours
In short: (§1)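 Growth inhibition in transgene-bearing BaF3 lines was scored after three days of compound treatment by CellTiter-Glo 2.0 ATP luminescence, yielding IC50 values.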

PC-9 cells = assay: 5-Day CellTiter Glo (CTG) cell proliferation assay, PC-9; type: cell-based; details: Homo sapiens; PC-9 cells (d746-750 EGFR), 5-day CTG proliferation, 120 hours; read-out: PC-9 IC50
In short: (§2)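 Proliferation of EGFR-driven NSCLC cells was scored as CellTiter-Glo 2.0 luminescence after a 5-day (120 h) incubation with compounds in 9 doses. IC50 values came from the dose-response curves.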

NCI-H1975 cells = assay: 5-Day CellTiter Glo (CTG) cell proliferation assay, NCI-H1975; type: cell-based; details: Homo sapiens; NCI-H1975 cells (L858R/T790M EGFR), 5-day CTG proliferation, 120 hours; read-out: H1975 IC50
In short: as §2

HCC827 cells = assay: 5-Day CellTiter Glo (CTG) cell proliferation assay, HCC827; type: cell-based; details: Homo sapiens; HCC827 cells (d746-750 EGFR), 5-day CTG proliferation, 120 hours; read-out: HCC827 IC50
In short: as §2

EGFR (L858R) = EGFR (L858R) (Homo sapiens, UniProt P00533, L858R); assay: HotSpot radiometric kinase assay, inhibition of EGFR L858R mutant; type: biochemical; details: 33P ATP, room temperature, 120 m
EGFR (L858R), sequence (P00533 25-1210 L858R): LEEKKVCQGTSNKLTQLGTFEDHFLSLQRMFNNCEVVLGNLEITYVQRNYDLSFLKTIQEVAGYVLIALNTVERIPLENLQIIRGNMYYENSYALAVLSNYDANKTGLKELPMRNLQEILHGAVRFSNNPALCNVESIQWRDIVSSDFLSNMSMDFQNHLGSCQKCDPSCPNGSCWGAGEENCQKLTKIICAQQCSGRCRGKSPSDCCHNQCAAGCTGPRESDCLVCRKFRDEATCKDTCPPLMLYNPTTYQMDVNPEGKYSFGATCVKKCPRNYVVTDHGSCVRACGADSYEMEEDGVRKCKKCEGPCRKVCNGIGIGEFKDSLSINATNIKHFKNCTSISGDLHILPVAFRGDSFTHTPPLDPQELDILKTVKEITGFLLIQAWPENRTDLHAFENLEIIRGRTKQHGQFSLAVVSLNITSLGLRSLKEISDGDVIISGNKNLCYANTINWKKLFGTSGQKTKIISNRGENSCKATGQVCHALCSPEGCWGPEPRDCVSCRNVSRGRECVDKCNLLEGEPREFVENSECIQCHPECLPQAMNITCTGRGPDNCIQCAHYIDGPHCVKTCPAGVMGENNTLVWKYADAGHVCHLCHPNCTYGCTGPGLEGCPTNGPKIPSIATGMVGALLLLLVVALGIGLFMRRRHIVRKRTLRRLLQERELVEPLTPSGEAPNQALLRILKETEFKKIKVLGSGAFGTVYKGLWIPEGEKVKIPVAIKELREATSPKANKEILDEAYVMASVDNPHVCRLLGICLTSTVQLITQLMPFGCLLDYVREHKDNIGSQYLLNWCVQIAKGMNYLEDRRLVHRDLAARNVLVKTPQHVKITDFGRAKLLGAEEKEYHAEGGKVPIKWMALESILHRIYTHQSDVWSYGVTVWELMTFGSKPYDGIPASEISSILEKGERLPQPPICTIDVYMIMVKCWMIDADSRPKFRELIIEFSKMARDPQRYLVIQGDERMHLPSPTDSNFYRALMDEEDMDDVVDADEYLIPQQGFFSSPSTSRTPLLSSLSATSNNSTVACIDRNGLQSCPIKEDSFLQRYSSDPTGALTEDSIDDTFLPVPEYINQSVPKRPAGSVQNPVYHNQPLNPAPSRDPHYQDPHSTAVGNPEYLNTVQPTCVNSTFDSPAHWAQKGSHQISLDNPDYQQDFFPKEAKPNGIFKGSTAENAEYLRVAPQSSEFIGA
Protocol: (§3) Biochemical Assays for inhibition of wild-type and mutant EGFRs
(§4) Briefly, specific kinase/substrate pairs along with required cofactors were prepared in reaction buffer; 20 mM HEPES pH 7.5, 10 mM […], 1 mM EGTA, 0.02% Brij35, 0.02 mg/ml BSA, 0.1 mM Na3VO4, 2 mM DTT, 1% DMSO. Compounds were delivered into the reaction, followed ~20 minutes later by addition of a mixture of ATP (Sigma, St. Louis MO) and ^33P ATP (Perkin Elmer, Waltham MA) to a final concentration of […]. Reactions were carried out at room temperature for 120 m, followed by spotting of the reactions onto P81 ion exchange filter paper (Whatman Inc., Piscataway, NJ). Unbound phosphate was removed by extensive washing of filters in 0.75% phosphoric acid. […] IC50 values and curve fits were obtained using Prism (GraphPad Software).

[2] = molecular target: T1, pEGFR, A431 cells (wildtype EGFR) (Homo sapiens, UniProt P00533); assay: Cellular EGFR phosphorylation assay (LANCE Ultra TR-FRET) in A431 cells; type: cell-based; details: 4 hours at 37° C., 40 ng/mL EGF for the final 10 minutes, read-out: A431 pEGFR IC50
T1 construct: pEGFR (Tyr1068) TR-FRET
In short: (§5)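 Cells were treated with compound for 4 h at 37 °C as a 9-point, 3-fold titration; A431 cells were stimulated with 40 ng/mL EGF for the final 10 min. Phospho-EGFR (Tyr1068) in lysates was read by TR-FRET after 4-6 h antibody incubation, and IC50 values were fitted.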

EGFR (D746-750/C797S) = EGFR (D746-750/C797S) (Homo sapiens, UniProt P00533, C797S/DEL746-750); assay: HotSpot radiometric kinase assay, inhibition of EGFR 746-750/C797S mutant; type: biochemical; details: 33P ATP, room temperature, 120 m
In short: (§6)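 Radiometric filter-binding format: ATP plus 33P-ATP ([…]) was added about 20 min after compound to kinase and substrate in HEPES pH 7.5 buffer with Mg2+, EGTA, Brij35, BSA, vanadate, DTT and 1% DMSO. After 120 min at room temperature, reactions were spotted on P81 paper and washed in phosphoric acid; IC50 values fitted.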

[3] = molecular target: T2, pEGFR, NCI-H1975 cells (L858R/T790M EGFR) (Homo sapiens, UniProt P00533, L858R/T790M); assay: Cellular EGFR phosphorylation assay (LANCE Ultra TR-FRET) in NCI-H1975 cells; type: cell-based; details: 4 hours at 37° C., read-out: H1975 pEGFR IC50
T2 construct: pEGFR (Tyr1068) TR-FRET
T2 sequence (P00533 25-1210 T790M/L858R): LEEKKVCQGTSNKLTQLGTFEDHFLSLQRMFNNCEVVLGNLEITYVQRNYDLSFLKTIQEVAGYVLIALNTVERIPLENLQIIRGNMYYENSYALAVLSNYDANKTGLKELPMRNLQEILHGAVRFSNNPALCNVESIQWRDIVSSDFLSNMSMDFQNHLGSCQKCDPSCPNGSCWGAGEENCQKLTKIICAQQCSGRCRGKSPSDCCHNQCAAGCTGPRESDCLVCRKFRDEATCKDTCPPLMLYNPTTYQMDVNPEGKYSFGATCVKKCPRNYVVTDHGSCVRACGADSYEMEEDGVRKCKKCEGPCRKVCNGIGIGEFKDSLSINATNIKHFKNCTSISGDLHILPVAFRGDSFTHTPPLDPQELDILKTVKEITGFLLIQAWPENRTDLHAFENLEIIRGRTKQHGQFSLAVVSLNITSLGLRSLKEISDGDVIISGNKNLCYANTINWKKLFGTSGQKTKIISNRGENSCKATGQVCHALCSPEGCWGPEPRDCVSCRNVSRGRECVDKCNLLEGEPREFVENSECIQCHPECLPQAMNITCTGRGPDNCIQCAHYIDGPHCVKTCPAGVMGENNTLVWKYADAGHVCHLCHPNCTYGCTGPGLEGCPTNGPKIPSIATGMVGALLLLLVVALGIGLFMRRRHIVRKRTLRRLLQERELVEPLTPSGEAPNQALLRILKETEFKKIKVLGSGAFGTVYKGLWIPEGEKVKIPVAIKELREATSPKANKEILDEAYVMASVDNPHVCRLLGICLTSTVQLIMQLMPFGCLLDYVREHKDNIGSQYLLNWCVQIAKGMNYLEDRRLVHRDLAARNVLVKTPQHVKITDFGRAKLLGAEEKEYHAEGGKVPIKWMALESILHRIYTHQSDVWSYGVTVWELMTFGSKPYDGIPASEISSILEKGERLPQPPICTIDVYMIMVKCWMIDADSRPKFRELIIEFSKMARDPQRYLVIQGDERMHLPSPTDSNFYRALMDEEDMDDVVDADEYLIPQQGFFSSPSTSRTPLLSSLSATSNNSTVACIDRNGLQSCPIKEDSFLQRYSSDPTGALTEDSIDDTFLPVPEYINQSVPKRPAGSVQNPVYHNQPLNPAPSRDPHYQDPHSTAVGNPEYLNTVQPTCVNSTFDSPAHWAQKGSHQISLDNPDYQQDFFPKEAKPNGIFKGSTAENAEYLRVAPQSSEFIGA
In short: as §5

EGFR (D746-750) = EGFR (D746-750) (Homo sapiens, UniProt P00533, DEL746-750); assay: HotSpot radiometric kinase assay, inhibition of EGFR 746-750 mutant; type: biochemical; details: 33P ATP, room temperature, 120 m
EGFR (D746-750), sequence (P00533 with tags, fused parts or gaps DEL746-750): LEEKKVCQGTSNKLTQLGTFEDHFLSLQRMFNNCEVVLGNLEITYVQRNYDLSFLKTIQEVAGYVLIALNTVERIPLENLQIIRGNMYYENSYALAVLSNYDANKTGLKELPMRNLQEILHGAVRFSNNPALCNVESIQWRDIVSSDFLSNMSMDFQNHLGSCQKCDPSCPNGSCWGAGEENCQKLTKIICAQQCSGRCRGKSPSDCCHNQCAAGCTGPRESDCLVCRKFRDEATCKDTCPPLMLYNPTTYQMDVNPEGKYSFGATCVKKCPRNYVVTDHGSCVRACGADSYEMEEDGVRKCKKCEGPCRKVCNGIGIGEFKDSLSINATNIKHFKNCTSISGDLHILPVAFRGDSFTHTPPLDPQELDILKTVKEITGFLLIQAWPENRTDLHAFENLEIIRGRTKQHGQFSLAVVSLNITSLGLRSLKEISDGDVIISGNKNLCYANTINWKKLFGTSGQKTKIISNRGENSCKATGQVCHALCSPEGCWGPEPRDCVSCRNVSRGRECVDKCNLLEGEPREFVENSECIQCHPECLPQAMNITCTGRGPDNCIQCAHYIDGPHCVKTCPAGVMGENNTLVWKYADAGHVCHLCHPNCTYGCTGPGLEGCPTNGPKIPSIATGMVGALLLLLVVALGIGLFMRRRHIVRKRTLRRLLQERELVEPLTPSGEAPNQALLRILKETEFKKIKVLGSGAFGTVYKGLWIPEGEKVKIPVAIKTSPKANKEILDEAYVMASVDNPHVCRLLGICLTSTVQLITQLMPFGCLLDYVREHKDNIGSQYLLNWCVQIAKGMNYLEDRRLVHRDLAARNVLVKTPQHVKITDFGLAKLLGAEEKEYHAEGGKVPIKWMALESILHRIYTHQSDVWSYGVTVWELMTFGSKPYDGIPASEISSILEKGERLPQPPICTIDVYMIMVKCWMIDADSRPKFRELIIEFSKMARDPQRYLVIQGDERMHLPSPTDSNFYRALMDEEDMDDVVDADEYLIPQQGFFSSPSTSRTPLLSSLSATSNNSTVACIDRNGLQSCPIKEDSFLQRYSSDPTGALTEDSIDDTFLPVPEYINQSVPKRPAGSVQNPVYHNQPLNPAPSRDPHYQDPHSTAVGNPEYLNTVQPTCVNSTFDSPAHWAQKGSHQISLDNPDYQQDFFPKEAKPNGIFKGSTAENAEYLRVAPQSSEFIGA
In short: as §6

EGFR (L858R/T790M/C797S) = EGFR (L858R/T790M/C797S) (Homo sapiens, UniProt P00533, C797S/L858R/T790M); assay: HotSpot radiometric kinase assay, inhibition of EGFR L858R/T790M/C797S mutant; type: biochemical; details: 33P ATP, room temperature, 120 m
In short: as §6

EGFR (D770_N771insNPG) = EGFR (D770_N771insNPG) (Homo sapiens, UniProt P00533, INS770NPG); assay: HotSpot radiometric kinase assay, inhibition of EGFR (D770_N771insNPG) mutant; type: biochemical; details: 33P ATP, room temperature, 120 m
In short: as §6

EGFR (L858R/T790M) = EGFR (L858R/T790M) (Homo sapiens, UniProt P00533, L858R/T790M); assay: HotSpot radiometric kinase assay, inhibition of EGFR L858R/T790M mutant; type: biochemical; details: 33P ATP, room temperature, 120 m
EGFR (L858R/T790M), sequence (P00533 25-1210 T790M/L858R): as the sequence (P00533 25-1210 T790M/L858R) above
Protocol: as §3, §4

[4] = molecular target: T3, pEGFR, PC-9 cells (d746-750 EGFR) (Homo sapiens, UniProt P00533, DEL746-750); assay: Cellular EGFR phosphorylation assay (LANCE Ultra TR-FRET) in PC-9 cells; type: cell-based; details: 4 hours at 37° C., read-out: PC-9 pEGFR IC50
T3 construct: pEGFR (Tyr1068) TR-FRET
In short: as §5

[5] = test system: BaF3 cells with engineered EGFR L858R/T790M/C797S; assay: 3-Day CellTiter Glo (CTG) cell proliferation assay, BaF3 EGFR L858R/T790M/C797S; type: cell-based; details: Mus musculus, 3-day CTG proliferation, 72 hours
In short: as §1

EGFR WT = EGFR WT (Homo sapiens, UniProt P00533); assay: HotSpot radiometric kinase assay, inhibition of EGFR WT; type: biochemical; details: 33P ATP, room temperature, 120 m
Protocol: as §3, §4

Row | SMILES | IC50 [1] | IC50 (PC-9 cells) | IC50 (NCI-H1975 cells) | IC50 (HCC827 cells) | IC50 (EGFR (L858R)) | IC50 [2] | IC50 (EGFR (D746-750/C797S)) | IC50 [3] | IC50 (EGFR (D746-750)) | IC50 (EGFR (L858R/T790M/C797S)) | IC50 (EGFR (D770_N771insNPG)) | IC50 (EGFR (L858R/T790M)) | IC50 [4] | IC50 [5] | IC50 (EGFR WT)
1 | CCOc1nn(CCO)c2c1/C=C/c1n[nH]c3cnc(cc13)-c1cnn(C)c1O[C@@H](C)CN(C(C)C)C2 [Ex. 11, 2-[(10S,17E)-16-ethoxy-8,10-dimethyl-12-(propan-2-yl)-2,8,10,11,12,13-hexahydro-14H-5,3-(azenometheno)tripyrazolo[3,4-f:3′,4′-j:4″,3″-n][1,4]oxazacyclopentadecin-14-yl]ethan-1-ol] | 0.16 nM | 3.65 nM | 3.14 nM | 0.25 nM | 0.38 nM | 16.1 nM | 0.31 nM | 5.25 nM | 0.52 nM | 0.43 nM | 0.23 nM | 0.44 nM | 2.86 nM | 0.83 nM | 0.1 nM
2 | CCN1Cc2c(c(OC(C)C)nn2CCO)/C=C/c2n[nH]c3cnc(cc23)-c2cnn(C)c2O[C@@H](C)C1 [Ex. 9, 2-[(10S,17E)-12-ethyl-8,10-dimethyl-16-[(propan-2-yl)oxy]-2,8,10,11,12,13-hexahydro-14H-5,3-(azenometheno)tripyrazolo[3,4-f:3′,4′-j:4″,3″-n][1,4]oxazacyclopentadecin-14-yl]ethan-1-ol] | 0.19 nM | 12.1 nM | 3.22 nM | 0.39 nM | 0.45 nM | 19.8 nM | 0.33 nM | 4.19 nM | 0.67 nM | 0.49 nM | 0.29 nM | 0.45 nM | 3.48 nM | 0.93 nM | 0.18 nM

Further lines, results first:

Row | IC50 [1] | IC50 (PC-9 cells) | IC50 (NCI-H1975 cells) | IC50 (HCC827 cells) | IC50 (EGFR (L858R)) | IC50 [2] | IC50 (EGFR (D746-750/C797S)) | IC50 [3] | IC50 (EGFR (D746-750)) | IC50 (EGFR (L858R/T790M/C797S)) | IC50 (EGFR (D770_N771insNPG)) | IC50 (EGFR (L858R/T790M)) | IC50 [4] | IC50 [5] | IC50 (EGFR WT) | SMILES
3 | 0.14 nM | 0.63 nM | 5.72 nM | 0.26 nM | 0.29 nM | 15.8 nM | 0.83 nM | 2.32 nM | 0.17 nM | 2.14 nM | 0.2 nM | 0.5 nM | 1.69 nM | 0.9 nM | 0.16 nM | Cc1nn(CCO)c2c1/C=C/c1n[nH]c3cnc(cc13)-c1c(C)nn(C)c1O[C@@H](C)CN(C(C)C)C2 [Ex. 21, 2-[(10S,17E)-6,8,10,16-tetramethyl-12-(propan-2-yl)-2,8,10,11,12,13-hexahydro-14H-5,3-(azenometheno)tripyrazolo[3,4-f:3′,4′-j:4″,3″-n][1,4]oxazacyclopentadecin-14-yl]ethan-1-ol]
4 | 0.16 nM | 2.74 nM | 1.51 nM | 0.28 nM | 0.2 nM | 10 nM | 0.6 nM | 2.85 nM | 0.14 nM | 1.78 nM | 0.19 nM | 0.37 nM | 2.54 nM | 0.79 nM | 0.15 nM | CCOc1nn([C@@H](C)CO)c2c1/C=C/c1n[nH]c3cnc(cc13)-c1cnn(C)c1O[C@@H](C)CN(C)C2 [Ex. 19, (2S)-2-[(10S,17E)-16-ethoxy-8,10,12-trimethyl-2,8,10,11,12,13-hexahydro-14H-5,3-(azenometheno)tripyrazolo[3,4-f:3′,4′-j:4″,3″-n][1,4]oxazacyclopentadecin-14-yl]propan-1-ol]
5 | 0.78 nM | 13.8 nM | 22.2 nM | 2.25 nM | 0.62 nM | 40.7 nM | 0.31 nM | 3.64 nM | 0.58 nM | 0.44 nM | 0.42 nM | 0.43 nM | 6.38 nM | 1.36 nM | 0.39 nM | CCOc1nn(CCO)c2c1/C=C/c1n[nH]c3cnc(cc13)-c1cnn(C)c1O[C@H](C)CN(C(C)C)C2 [Ex. 12, 2-[(10R,17E)-16-ethoxy-8,10-dimethyl-12-(propan-2-yl)-2,8,10,11,12,13-hexahydro-14H-5,3-(azenometheno)tripyrazolo[3,4-f:3′,4′-j:4″,3″-n][1,4]oxazacyclopentadecin-14-yl]ethan-1-ol]
6 | 3.05 nM | 25.2 nM | 96 nM | 2.89 nM | 0.55 nM | 61 nM | 0.98 nM | 8.57 nM | 0.27 nM | 2.57 nM | 1.48 nM | 0.81 nM | 11.8 nM | 5.29 nM | 0.71 nM | Cc1nn(CCO)c2c1/C=C/c1n[nH]c3cnc(cc13)-c1c(C)nn(C)c1O[C@H](C)CN(C(C)C)C2 [Ex. 20, 2-[(10R,17E)-6,8,10,16-tetramethyl-12-(propan-2-yl)-2,8,10,11,12,13-hexahydro-14H-5,3-(azenometheno)tripyrazolo[3,4-f:3′,4′-j:4″,3″-n][1,4]oxazacyclopentadecin-14-yl]ethan-1-ol]

Source: patent US20260317344A1, “EGFR INHIBITORS FOR TREATING DISEASE” (BLOSSOMHILL THERAPEUTICS, INC., priority 2023, published 2026)
